Source: patent US4690938A, “Anti-hypertensive agents” (University of Miami, priority 1979, dated 1987)

Experiments:
[1] = target: T1, angiotensin converting enzyme (human urinary ACE) (Homo sapiens, UniProt P12821); assay: ACE activity assay: hydrolysis of Benzoyl-GlyHisLeu by ACE purified from human urine; format: biochemical; conditions: Benzoyl-GlyHisLeu 1×10^-4 M, pH 8.0, 37° C, read-out: I50
T1 construct: ACE purified from human urine; from tissue; host or cells: human urine
Source text: The role of ACE in the pathogenesis of hypertension has prompted a search for inhibitors of the enzyme that could act as antihypertensive drugs. See for example U.S. Pat. Nos. 3,891,616, 3,947,575, 4,052,511 and 4,053,651. […]. No. 4,046,889 to Ondetti et al., issued Sept. 6, 1977, and in scientific articles by Cushman, D. W. et al., Biochemistry 16, 5484 (1977), and by Ondetti, M. et al., Science 196, 441 (1977). […]. These factors include the source of enzyme, its purity, the substrate used and its concentration, and the composition of the assay buffer. All I50 data reported herein have been performed with the same assay system and same enzyme (human urinary ACE) and with an approximately 1/2 Km level of substrate and are therefore internally consistent. Discrepancies with data obtained by other workers may be observed. Indeed such discrepancies do exist in the literature, for unknown reasons. See, for example, the I50 values for BPP9a reported by Cushman, D. W., et al., Experientia 29, 1032 (1973) and by Dorer, F. E., et al., Biochim.Biophys.Acta 429, 220 (1976).
For most experiments described herein, the enzyme was assayed in 0.05M Hepes buffer, pH 8.0 containing 0.1M NaCl and 0.75M Na2 SO4. […]
The inhibitory potency of N^α-[ 3-(N^α -benzoylglycylthio)-2-D-L-proline in vitro was measured in the assay described in Example 1. […]

[2] = test system: mean arterial blood pressure response to angiotensin I; assay: Intravenous effectiveness: blood pressure response to angiotensin I in anesthetized rats; format: in vivo, rat; conditions: i.v.; angiotensin I 400 ng/kg
Experimental: Rats (210-290 g body weight) were fasted overnight and then anesthetized with intraperitoneal pentobarbital, 50-60 mg/kg. Tracheostomy was performed and the animals were ventilated mechanically. A cannula was inserted into a femoral vein for injection of angiotensin I, and a second cannula was inserted into a common carotid artery for direct measurement of arterial blood pressure. Heparin, 1,000 units, was injected via the femoral vein to prevent coagulation. Blood pressure was measured with a pressure transducer connected to a polygraph. The rats were injected with […] of angiotensin I in 20 μl of 0.9 g % NaCl; an amount of angiotensin I sufficient to raise mean arterial blood pressure by 38 mm Hg. After the responsiveness of a given rat to angiotensin I was established, the named compound at 20 μmol/kg (drug dissolved in 0.15 ml of H2 O plus 10 μl of 1N NaHCO3), was given via a stomach tube. At timed intervals, the effects of 400 ng/kg of angiotensin I on mean arterial blood pressure were tested. Results are shown below:
Intravenous Effectiveness of N^α -[3-(N^α -benzoylglycylthio)-2-D-methylpropanoyl)-L-proline. Anesthetized rats were prepared as described in Example 20. The animals were administered the named compound via a femoral vein in 15 μl of 0.01 N sodium bicarbonate, after the control response to 400 ng/kg of angiotensin I was measured. […]

[3] = test system: mean arterial blood pressure response to angiotensin I; assay: Oral effectiveness: blood pressure response to angiotensin I in anesthetized rats; format: in vivo, rat; conditions: angiotensin I 400 ng/ml in 20 μl of 0.9 g % NaCl (table: 400 ng/kg); control response before drug
Experimental: Rats (210-290 g body weight) were fasted overnight and then anesthetized with intraperitoneal pentobarbital, 50-60 mg/kg. Tracheostomy was performed and the animals were ventilated mechanically. A cannula was inserted into a femoral vein for injection of angiotensin I, and a second cannula was inserted into a common carotid artery for direct measurement of arterial blood pressure. Heparin, 1,000 units, was injected via the femoral vein to prevent coagulation. Blood pressure was measured with a pressure transducer connected to a polygraph. The rats were injected with 400 ng/ml of angiotensin I in 20 μl of 0.9 g % NaCl; an amount of angiotensin I sufficient to raise mean arterial blood pressure by 38 mm Hg. After the responsiveness of a given rat to angiotensin I was established, the named compound at 20 μmol/kg (drug dissolved in 0.15 ml of H2 O plus 10 μl of 1N NaHCO3), was given via a stomach tube. At timed intervals, the effects of 400 ng/kg of angiotensin I on mean arterial blood pressure were tested.

T1 sequence (P12821 30-1232 limits assumed): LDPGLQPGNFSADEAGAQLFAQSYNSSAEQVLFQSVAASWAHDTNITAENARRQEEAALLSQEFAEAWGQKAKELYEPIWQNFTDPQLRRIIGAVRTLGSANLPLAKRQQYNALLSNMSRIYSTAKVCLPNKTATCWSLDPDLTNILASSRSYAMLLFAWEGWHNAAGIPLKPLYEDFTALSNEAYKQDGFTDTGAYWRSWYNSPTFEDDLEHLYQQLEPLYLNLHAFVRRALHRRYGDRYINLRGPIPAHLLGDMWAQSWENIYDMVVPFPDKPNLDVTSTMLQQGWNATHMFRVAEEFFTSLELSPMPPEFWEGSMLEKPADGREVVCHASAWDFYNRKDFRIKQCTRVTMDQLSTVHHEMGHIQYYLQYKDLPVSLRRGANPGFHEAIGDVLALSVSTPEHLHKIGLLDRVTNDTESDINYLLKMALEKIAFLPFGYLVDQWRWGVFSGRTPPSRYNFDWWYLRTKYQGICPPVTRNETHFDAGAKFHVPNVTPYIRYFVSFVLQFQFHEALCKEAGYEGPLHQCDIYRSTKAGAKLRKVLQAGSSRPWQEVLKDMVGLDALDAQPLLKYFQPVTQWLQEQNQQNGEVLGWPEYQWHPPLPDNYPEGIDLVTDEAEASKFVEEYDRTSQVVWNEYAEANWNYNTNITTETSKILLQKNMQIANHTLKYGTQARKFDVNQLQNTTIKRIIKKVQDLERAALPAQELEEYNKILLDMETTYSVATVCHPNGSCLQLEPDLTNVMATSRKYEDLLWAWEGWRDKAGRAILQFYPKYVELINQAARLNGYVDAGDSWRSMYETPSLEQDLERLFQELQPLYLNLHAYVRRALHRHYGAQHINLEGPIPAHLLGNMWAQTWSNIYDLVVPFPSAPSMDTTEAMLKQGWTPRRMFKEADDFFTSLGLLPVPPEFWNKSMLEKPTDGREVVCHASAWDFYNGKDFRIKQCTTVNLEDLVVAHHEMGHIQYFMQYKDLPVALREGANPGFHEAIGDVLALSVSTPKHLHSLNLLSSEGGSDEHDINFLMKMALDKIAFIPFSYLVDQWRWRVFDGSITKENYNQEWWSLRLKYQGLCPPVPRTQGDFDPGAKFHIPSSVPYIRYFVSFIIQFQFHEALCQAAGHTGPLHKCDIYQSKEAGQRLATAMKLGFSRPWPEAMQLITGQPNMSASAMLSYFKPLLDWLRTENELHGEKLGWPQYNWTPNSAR

In the case of `C[C@H](CSC(=O)CNC(=O)c1ccccc1)C(=O)N1CCC[C@H]1C(=O)O` [Example 13, N^α -[3-(N^Δ -benzoylglycylthio)-2-D-methylpropanoyl]-L-proline], the IC50 [1] is reported as 7.5 nM and the “Blood pressure response to angiotensin I after intravenous administration (in words)” value [2] is reported as “rapid decrease of blood pressure response to angiotensin I, 400 ng/kg followed by a gradual rise to the pretreatment level of responsiveness”.

With “angiotensin I: decapeptide angiotensin I, having the sequence AspArgValTyrlleHisProPheHisLeu (DRVYIHPFHL; Angiotensin-1; UniProt P01019 25-34, looked up)” the “Increase of mean arterial blood pressure by angiotensin I” value [3] was 38 mm Hg.
